Measured values from US20220306659A1, “COMPOUND INHIBITING AND INDUCING DEGRADATION OF EGFR AND ALK” (BEIJING TIDE PHARMACEUTICAL CO., LTD., priority 2019, published 2022).

Tests used:
EGFR^Del19/T790M/C797S [1] = target: T1, EGFR^Del19/T790M/C797S (Homo sapiens, UniProt P00533, C797S/DEL746-750/T790M); test: EGFR inhibitory activity assay (TK-substrate-biotin/ATP, 665/615 ratio); format: biochemical; settings: kinase inhibition
Method: EGFR Inhibitory Activity Assay
(2) The plate was sealed, and centrifuged at 1,000 g for 1 min;
(4) 5 μl of the 2×EGFR protein working solution was added to the 384-well plate from step (2), centrifuged at 1,000 g for 30 s, and allowed to stand at room temperature (mixed thoroughly) for 10 min;
(6) 5 µL of the TK-substrate-biotin and ATP (the mixture prepared in step (5)) was added to the 384-well plate from step (4) to initiate the reaction;
(7) The mixture was centrifuged at 1,000 g for 30 s; the plate was sealed, and allowed to stand (and reacted) at room temperature for 40 min;
(10) The mixture was centrifuged at 1,000 g for 30 s, and allowed to stand (reacted) at room temperature for 1 h;
Formula of inhibition rate (%): […]
The nonlinear regression curve (dose response-variable slope) between the value of inhibition rate (%) and the logarithm of compound concentration was fitted with graphpad prism 8.0, the effect dose curve of compound was drawn, and the IC50 value was calculated.

EGFR^L858R/T790M/C797S [2] = target: T2, EGFR^L858R/T790M/C797S (Homo sapiens, UniProt P00533, C797S/L858R/T790M); test: as above; format: biochemical; settings: kinase inhibition
How it was run: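 HTRF kinase assay: enzyme preincubated with compound 10 min at room temperature, then reacted with biotinylated TK substrate and ATP for 40 min at room temperature.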

[3] = target: Ba/F3(EGFR^L858R/T790M/C797S) cells (Homo sapiens, UniProt P00533, T790M/C797S/L858R, cells depend on it); test: Assay of activity on Ba/F3 cells (CTG, 72 h); format: cell-based; settings: read-out: IC50 (nM) Ba/F3 (EGFR^L858R/T790M/C797S)
How it was run: (§1)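 Ba/F3 cells dependent on each EGFR triple mutant were exposed to 3-fold compound dilutions for 72 h at 37° C, 5% CO2, with CellTiter-Glo luminescence as the read-out.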

[4] = target: Ba/F3(EGFR^Del19/T790M/C797S) cells (Homo sapiens, UniProt P00533, DEL746-750/T790M/C797S, cells depend on it); test: Assay of activity on Ba/F3 cells (CTG, 72 h); format: cell-based; settings: read-out: IC50 (nM) Ba/F3 (EGFR^Del19/T790M/C797S)
How it was run: as §1

Ba/F3(EML4-ALK) cells = target: T3, Ba/F3(EML4-ALK) cells (Homo sapiens, UniProt Q9UM73); test: Assay of activity on Ba/F3(EML4-ALK) cells (CTG, 72 h); format: cell-based; settings: read-out: IC50 (nM) Ba/F3(EML4-ALK)
T3 construct: fused on or other part: Q9HC35 (Echinoderm microtubule-associated protein-like 4)
T3 sequence (Q9UM73 whole entry, change not shown, the tested form may be a part): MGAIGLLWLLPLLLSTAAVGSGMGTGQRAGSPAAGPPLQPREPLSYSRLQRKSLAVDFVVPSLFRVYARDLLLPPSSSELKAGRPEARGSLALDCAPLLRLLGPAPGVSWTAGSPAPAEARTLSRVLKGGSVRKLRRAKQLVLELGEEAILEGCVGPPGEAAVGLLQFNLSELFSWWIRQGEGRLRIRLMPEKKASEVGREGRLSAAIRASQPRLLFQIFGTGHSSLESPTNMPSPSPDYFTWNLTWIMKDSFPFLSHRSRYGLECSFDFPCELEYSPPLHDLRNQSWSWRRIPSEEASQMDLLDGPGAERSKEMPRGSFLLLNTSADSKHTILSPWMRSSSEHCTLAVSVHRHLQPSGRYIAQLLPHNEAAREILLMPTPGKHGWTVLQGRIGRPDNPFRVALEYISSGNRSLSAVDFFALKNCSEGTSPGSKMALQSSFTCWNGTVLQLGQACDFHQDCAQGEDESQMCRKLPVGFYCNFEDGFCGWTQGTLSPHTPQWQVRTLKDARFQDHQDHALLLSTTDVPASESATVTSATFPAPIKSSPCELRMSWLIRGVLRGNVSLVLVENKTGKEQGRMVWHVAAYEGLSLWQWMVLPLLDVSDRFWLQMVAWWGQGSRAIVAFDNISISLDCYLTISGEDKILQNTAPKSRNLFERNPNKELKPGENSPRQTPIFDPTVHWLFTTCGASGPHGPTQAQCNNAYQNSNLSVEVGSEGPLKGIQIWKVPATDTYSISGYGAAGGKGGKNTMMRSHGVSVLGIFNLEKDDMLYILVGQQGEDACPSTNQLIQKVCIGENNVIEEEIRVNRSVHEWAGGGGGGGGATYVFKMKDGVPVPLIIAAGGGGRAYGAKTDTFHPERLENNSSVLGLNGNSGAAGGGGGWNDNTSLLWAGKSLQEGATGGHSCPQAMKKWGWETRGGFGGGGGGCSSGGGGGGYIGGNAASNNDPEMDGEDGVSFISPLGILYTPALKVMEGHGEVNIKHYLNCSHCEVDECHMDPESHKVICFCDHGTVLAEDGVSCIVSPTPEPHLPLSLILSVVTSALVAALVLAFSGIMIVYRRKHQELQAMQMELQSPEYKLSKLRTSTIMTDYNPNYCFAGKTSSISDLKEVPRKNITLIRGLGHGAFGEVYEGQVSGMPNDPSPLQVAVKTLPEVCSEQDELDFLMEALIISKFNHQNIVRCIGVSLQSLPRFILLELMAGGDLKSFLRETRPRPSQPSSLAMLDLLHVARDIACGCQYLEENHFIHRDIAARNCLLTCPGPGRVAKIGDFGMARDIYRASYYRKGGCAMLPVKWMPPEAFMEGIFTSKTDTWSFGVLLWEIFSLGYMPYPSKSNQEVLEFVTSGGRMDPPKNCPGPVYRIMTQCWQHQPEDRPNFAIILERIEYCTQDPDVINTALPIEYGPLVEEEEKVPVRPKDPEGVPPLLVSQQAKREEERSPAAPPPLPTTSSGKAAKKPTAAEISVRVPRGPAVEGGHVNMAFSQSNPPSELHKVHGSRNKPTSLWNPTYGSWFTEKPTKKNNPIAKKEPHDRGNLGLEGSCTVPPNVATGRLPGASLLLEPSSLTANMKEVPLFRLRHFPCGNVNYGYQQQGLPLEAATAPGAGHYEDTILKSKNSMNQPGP
How it was run: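 Ba/F3(EML4-ALK) cells, 700 per well, were exposed to 3-fold serial compound dilutions for 72 h at 37° C, 5% CO2, and viability was then read by CTG luminescence.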

ALK = ALK (Homo sapiens, UniProt Q9UM73); test: Assay of activity on ALK kinase; format: biochemical; settings: kinase inhibition
ALK, sequence (Q9UM73 19-1620): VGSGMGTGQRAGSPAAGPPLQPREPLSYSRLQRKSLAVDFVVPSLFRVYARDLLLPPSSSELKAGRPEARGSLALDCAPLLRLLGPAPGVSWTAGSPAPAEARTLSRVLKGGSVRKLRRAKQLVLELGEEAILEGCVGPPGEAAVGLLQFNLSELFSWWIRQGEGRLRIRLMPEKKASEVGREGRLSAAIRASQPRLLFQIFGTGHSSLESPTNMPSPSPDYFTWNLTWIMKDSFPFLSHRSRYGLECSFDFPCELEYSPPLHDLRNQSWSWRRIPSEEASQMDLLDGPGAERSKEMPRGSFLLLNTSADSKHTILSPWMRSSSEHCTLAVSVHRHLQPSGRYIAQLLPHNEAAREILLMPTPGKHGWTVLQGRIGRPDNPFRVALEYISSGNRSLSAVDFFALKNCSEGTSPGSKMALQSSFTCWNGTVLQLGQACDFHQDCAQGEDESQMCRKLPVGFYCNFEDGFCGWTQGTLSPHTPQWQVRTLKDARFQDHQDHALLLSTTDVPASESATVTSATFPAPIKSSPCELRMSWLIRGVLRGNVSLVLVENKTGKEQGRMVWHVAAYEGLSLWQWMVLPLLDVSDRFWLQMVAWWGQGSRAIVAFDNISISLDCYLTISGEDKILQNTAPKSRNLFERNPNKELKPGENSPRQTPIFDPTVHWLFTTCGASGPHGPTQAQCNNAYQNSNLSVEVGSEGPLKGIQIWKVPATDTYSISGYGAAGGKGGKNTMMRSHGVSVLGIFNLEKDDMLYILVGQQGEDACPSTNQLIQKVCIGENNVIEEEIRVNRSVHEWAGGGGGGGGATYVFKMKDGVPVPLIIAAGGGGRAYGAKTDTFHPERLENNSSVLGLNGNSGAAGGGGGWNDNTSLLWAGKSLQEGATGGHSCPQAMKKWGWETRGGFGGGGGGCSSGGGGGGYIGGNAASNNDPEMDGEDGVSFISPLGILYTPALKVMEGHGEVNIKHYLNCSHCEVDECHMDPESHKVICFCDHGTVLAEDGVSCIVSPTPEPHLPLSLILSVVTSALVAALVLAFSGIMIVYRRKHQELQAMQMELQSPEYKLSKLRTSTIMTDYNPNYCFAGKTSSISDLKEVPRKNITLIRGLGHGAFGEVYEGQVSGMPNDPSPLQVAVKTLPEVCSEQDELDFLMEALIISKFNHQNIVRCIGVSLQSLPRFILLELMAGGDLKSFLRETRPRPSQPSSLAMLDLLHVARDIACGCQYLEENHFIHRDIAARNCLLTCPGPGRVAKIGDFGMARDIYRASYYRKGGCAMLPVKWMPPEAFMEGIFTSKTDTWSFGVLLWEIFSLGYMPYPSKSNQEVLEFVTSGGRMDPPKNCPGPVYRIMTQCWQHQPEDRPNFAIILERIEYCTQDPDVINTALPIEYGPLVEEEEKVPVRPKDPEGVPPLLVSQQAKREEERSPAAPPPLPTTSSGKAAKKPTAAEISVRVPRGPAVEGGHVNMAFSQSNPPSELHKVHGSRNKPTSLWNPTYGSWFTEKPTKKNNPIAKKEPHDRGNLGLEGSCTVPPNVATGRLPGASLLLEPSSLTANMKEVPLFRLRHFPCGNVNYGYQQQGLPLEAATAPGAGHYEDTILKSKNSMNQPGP

ALK^G1202R = ALK^G1202R (Homo sapiens, UniProt Q9UM73, G1202R); test: Assay of activity on ALK kinase; format: biochemical; settings: kinase inhibition
ALK^G1202R, sequence (Q9UM73 19-1620 G1202R): as the sequence (Q9UM73 19-1620) above, with G1184R counted along it

EGFR^L858R/T790M/C797S [5] = target: T2, EGFR^L858R/T790M/C797S; test: Assay of activity of compounds to induce EGFR protein degradation (Alpha counts); format: cell-based; parameters: expressed in transfected cells; host or cells: Ba/F3; settings: 24 h
Excerpt: (§2) Assay of activity of compounds to induce EGFR^58R/IT790M/C797S and EGFR^Dell9/T790M/C797S protein degradation
(§3) In order to further explain the reason why the compounds of the present disclosure have inhibitory activity on Ba/F3(EGFR^58R/IT790M/C797S) and Ba/F3(EGFR^Dell9/T790M/C797S) cells, representative compounds C176 and C213 were selected to study the mechanism of action of the compounds, and observe their effects on EGFR^58R/IT790M/C797S and EGFR^Dell9/T790M/C797S protein levels.
(§4) Ba/F3(EGFR^58R/IT790M/C797S) and Ba/F3(EGFR^Dell9/T790M/C797S) cells were cultured according to the culture conditions recommended by ATCC, and analyzed by index.
(§5) Complete medium: 1640 medium, 10% FBS, 1× glutamine, 1× penicillin-streptomycin.
(§6) Culture conditions: incubated at 37° C., 95% air, 5% CO2 incubator.
(§7) (2) Compound stock solution: 10 mM stock solution in DMSO, stored at −20° C.
(§8) (3) Preparation of cell suspension:
(§9) The cells in the cell culture bottle were collected, and the cells with viability of >90% can be used in the assay. Cells were seeded in a 96-well plate with 40 μL cells, 1*10^5 cells/well.
(§10) Compound was diluted 3× with DMSO, starting at 1.0 mM (for EGFR^58R/IT790M/C797S assay) and 5 mM (for EGFR^Dell9/T790M/C797S assay), respectively, into 10 concentrations to prepare working solutions.
(§11) (5) Compound was pipetted into the 96-well plate to treat cells in a 37° C., 95% air, 5% CO2 incubator for 24 h.
(§12) 1) 1 μg/mL of EGF activated cells were treated for 10 min;
(§13) 2) After the compound treatment, lysis buffer was added to lyse cells; 10 μL of cell lysate was transferred to a 384-well plate; in addition, control lysate and negative control plus 5 μL of acceptor mix were added to the 384-well plate, and shaken on a shaker for 1-2 min;
(§14) 3) 5 μL of donor mix was added to each well; the 384-well plate was sealed, shaken on a shaker for 1-2 min, left in the dark at room temperature overnight, and read with an enzyme labeling instrument.
(§15) Alpha counts were fitted by logarithmic treatment of compound concentration with Graphpad Prism 8.0.
(§16) Y=Bottom+(Top−Bottom)/(1+10^((LogIC50−X)*HillSlope))
(§17) X: logarithm of compound concentration; Y: Alpha Counts.

EGFR^Del19/T790M/C797S [6] = target: T1, EGFR^Del19/T790M/C797S; test: as above; format: cell-based; parameters: expressed in transfected cells; host or cells: Ba/F3; settings: 24 h
Excerpt: as §2, §3, §4, §5, §6, §7, §8, §9, §10, §11, §12, §13, §14, §15, §16, §17

IC50 (EGFR^Del19/T790M/C797S [1]) [nM]	IC50 (EGFR^L858R/T790M/C797S [2]) [nM]	GI50 [3] [nM]	GI50 [4] [nM]	GI50 (Ba/F3(EML4-ALK) cells) [nM]	IC50 (ALK) [nM]	IC50 (ALK^G1202R) [nM]	DC50 (EGFR^L858R/T790M/C797S [5]; Ba/F3(EGFR^L858R/T790M/C797S) cells, 0.01 nM to 1000 nM, FIG. 1, read-out: DC50 of EGFR^L858R/T790M/C797S protein level) [nM]	effect on EGFR^L858R/T790M/C797S protein level (in words) (EGFR^L858R/T790M/C797S [5]; Ba/F3 cells, dose-dependent)	DC50 (EGFR^Del19/T790M/C797S [6]; Ba/F3(EGFR^Del19/T790M/C797S) cells, 0.1 nM to 10000 nM, FIG. 2, read-out: DC50 of EGFR^Del19/T790M/C797S protein level) [nM]	effect on EGFR^Del19/T790M/C797S protein level (in words) (EGFR^Del19/T790M/C797S [6]; Ba/F3 cells, dose-dependent)	Compound
1 to 100	1 to 100	1 to 100	1 to 100	1 to 100	1 to 100	101 to 200	–	–	–	–	COc1cc(N2CCC(N3CCN(CCCCCCCOc4cccc5c4C(=O)N(C4CCC(=O)NC4=O)C5=O)CC3)CC2)ccc1Nc1ncc(Cl)c(Nc2ccccc2P(C)(C)=O)n1 (centres unmarked) [Compound A10, 4-((7-(4-(1-(4-((5-chloro-4-((2-(dimethylphosphoryl)phenyl)amino)pyrimidin-2-yl)amino)-3-methoxyphenyl)piperidin-4-yl)piperazin-1-yl)heptyl)oxy)-2-(2,6-dioxopiperidin-3-yl)isoindoline-1,3-dione]
1 to 100	1 to 100	101 to 200	1 to 100	1 to 100	1 to 100	101 to 200	–	–	–	–	COc1cc(N2CCC(N3CCN(CCCCCCCCCOc4cccc5c4C(=O)N(C4CCC(=O)NC4=O)C5=O)CC3)CC2)ccc1Nc1ncc(Cl)c(Nc2ccccc2P(C)(C)=O)n1 (centres unmarked) [Compound A11, 4-((9-(4-(1-(4-((5-chloro-4-((2-(dimethylphosphoryl)phenyl)amino)pyrimidin-2-yl)amino)-3-methoxyphenyl)piperidin-4-yl)piperazin-1-yl)nonyl)oxy)-2-(2,6-dioxopiperidin-3-yl)isoindoline-1,3-dione]
–	1 to 100	1 to 100	–	1 to 100	–	–	31.4	significantly reduces	–	–	COc1cc(N2CCC(N3CCN(CCOCC#Cc4cccc5c4CN(C4CCC(=O)NC4=O)C5=O)CC3)CC2)ccc1Nc1ncc(Cl)c(Nc2ccccc2P(C)(C)=O)n1 (centres unmarked) [Compound C176, 3-(4-(3-(2-(4-(1-(4-((5-chloro-4-((2-(dimethylphosphoryl)phenyl)amino)pyrimidin-2-yl)amino)-3-methoxyphenyl)piperidin-4-yl)piperazin-1-yl)ethoxy)prop-1-yn-1-yl)-1-oxoisoindolin-2-yl)piperidine-2,6-dione]
–	–	1 to 100	1 to 100	–	–	–	–	–	11.3	significantly reduces	COc1cc(N2CCC3(CCN(CCCCCOc4cccc5c4CN(C4CCC(=O)NC4=O)C5=O)CC3)CC2)c(C)cc1Nc1ncc(Br)c(Nc2ccc3nccnc3c2P(C)(C)=O)n1 (centres unmarked) [Compound C213, 3-(4-((5-(9-(4-((5-bromo-4-((5-(dimethylphosphoryl)quinoxalin-6-yl)amino)pyrimidin-2-yl)amino)-5-methoxy-2-methylphenyl)-3,9-diazaspiro[5.5]undecan-3-yl)pentyl)oxy)-1-oxoisoindolin-2-yl)piperidine-2,6-dione]
